From PMC10151572, “The identification of viral ribonucleotide reductase encoded by ORF23 and ORF141 genes and effect on CyHV-2 replication” (Frontiers in Microbiology, 2023)

Columns and labels:
[1] = target: T1, CyHV-2 RR (ORF23-GST + ORF141-His) (Cyprinid herpesvirus 2, UniProt K7PBF0+K7PBQ3); assay: RR activity, dCDP formation by HPLC after borate column; assay type: biochemical; conditions: hydroxyurea 80 μM; 10 μg of both recombinant proteins; CDP 80 μM, ATP 2.7 mM, other nucleotides; 50 mM HEPES-KOH, 5 mM MgCl2, 50 mM DTT, 20 mM ferrous ammonium sulfate; 1 h at 4°C
T1 construct: gene CyHV2_ORF23; recombinant ORF23-GST and ORF141-His mixed in vitro; RR described in general as two homodimers (alpha2beta2)

[2] = target: T1, CyHV-2 RR (ORF23-GST + ORF141-His); assay: as above; assay type: biochemical; conditions: CDP 80 μM with ATP 2.7 mM, dATP, dTTP, dGTP, UDP, ADP, GDP; both subunits needed; 50 mM HEPES-KOH, 5 mM MgCl2, 50 mM DTT, 20 mM ferrous ammonium sulfate; 1 h at 4°C

Structure (SMILES) | % activity reduction at 80 μM [1] [%] | RR activity, dCDP formation by HPLC after borate column [2]
NC(=O)NO [hydroxyurea] | 52 | 
Nc1ccn([C@@H]2O[C@H](COP(=O)(O)OP(=O)(O)O)[C@@H](O)[C@H]2O)c(=O)n1 [CDP] |  | interaction between ORF23-GST and ORF141-His proteins is essential for catalyzing the reduction of CDP to
